{"source": "patent US8058475B2", "about": "“Substituted cyclohexylmethyl compounds” (Gruenenthal GmbH, priority 2005, dated 2011)", "target": "human μ-opiate receptor (Homo sapiens, UniProt P35372)", "sequence (P35372 whole entry)": "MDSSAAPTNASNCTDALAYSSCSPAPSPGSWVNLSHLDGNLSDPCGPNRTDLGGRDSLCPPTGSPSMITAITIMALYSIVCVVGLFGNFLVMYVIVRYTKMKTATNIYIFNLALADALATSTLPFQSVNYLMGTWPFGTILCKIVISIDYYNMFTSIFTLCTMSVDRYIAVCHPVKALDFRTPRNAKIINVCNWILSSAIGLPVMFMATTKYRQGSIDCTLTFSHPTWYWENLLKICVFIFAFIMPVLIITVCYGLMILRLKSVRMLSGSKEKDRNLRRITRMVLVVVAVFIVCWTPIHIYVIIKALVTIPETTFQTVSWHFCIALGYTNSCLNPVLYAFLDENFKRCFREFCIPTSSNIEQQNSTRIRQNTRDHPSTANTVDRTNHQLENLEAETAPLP", "assay": "Affinity for the human μ-opiate receptor ([3H]-naloxone displacement, SPA, CHO-K1 membrane preparation)", "type": "binding", "details": "for inhibition at 1 µM: read-out: μ-Opioid receptor, % inhibition [1 μM]; for pKi: read-out: μ-Opioid receptor, Ki", "note": "pKi: −log10 of the molar value. Like-named read-outs stand apart in the source and are kept apart here."}
{"smiles": "CN(C)C(c1ccccc1)C1CCC(NC(=O)c2cc(C(F)(F)F)ccc2F)CC1", "note": "(stereo not drawn) [compound 205, N-[4-(dimethylamino-phenyl-methyl)-cyclohexyl]-2-fluoro-5-trifluoromethyl-benzamide]", "values": [{"measurement": "inhibition at 1 µM", "value": 94, "unit": "%"}, {"measurement": "pKi", "value": 7.66}]}
{"smiles": "CN(C)C(c1ccccc1)C1CCC(NC(=O)Cc2ccc(Cl)cc2)CC1", "note": "(stereo not drawn) [compound 206, 2-(4-chloro-phenyl)-N-[4-(dimethylamino-phenyl-methyl)-cyclohexyl]-acetamide]", "values": [{"measurement": "inhibition at 1 µM", "value": 93, "unit": "%"}, {"measurement": "pKi", "value": 7.25}]}
{"smiles": "COc1ccccc1C(=O)NC1CCC(C(c2cccs2)N(C)C)CC1", "note": "(stereo not drawn) [compound 207, N-[4-(dimethylamino-thiophen-2-yl-methyl)-cyclohexyl]-2-methoxy-benzamide]", "values": [{"measurement": "inhibition at 1 µM", "value": 92, "unit": "%"}, {"measurement": "pKi", "value": 7.55}]}
{"smiles": "CSc1ncccc1C(=O)NC1CCC(C(c2cccs2)N(C)C)CC1", "note": "(stereo not drawn) [compound 208, N-[4-(dimethylamino-thiophen-2-yl-methyl)-cyclohexyl]-2-methylsulfanyl-nicotinamide]", "values": [{"measurement": "inhibition at 1 µM", "value": 92, "unit": "%"}, {"measurement": "pKi", "value": 6.89}]}
{"smiles": "CN(C)C(c1cccc(F)c1)C1CCC(NC(=O)c2ccc(Cl)c(Cl)c2)CC1", "note": "(stereo not drawn) [compound 209, 3,4-dichloro-N-{4-[dimethylamino-(3-fluoro-phenyl)-methyl]-cyclohexyl}-benzamide]", "values": [{"measurement": "inhibition at 1 µM", "value": 92, "unit": "%"}, {"measurement": "pKi", "value": 7.33}]}
{"smiles": "COc1c(C(=O)NC2CCC(C(c3ccc(F)cc3)N(C)C)CC2)csc1Cl", "note": "(stereo not drawn) [compound 211, 5-chloro-4-methoxy-thiophene-3-carboxylic acid {4-[dimethylamino-(4-fluoro-phenyl)-methyl]-cyclohexyl}-amide]", "values": [{"measurement": "inhibition at 1 µM", "value": 92, "unit": "%"}]}
{"smiles": "COc1cc(C(=O)NC2CCC(C(c3cccs3)N(C)C)CC2)cc(OC)c1OC", "note": "(stereo not drawn) [compound 212, N-[4-(dimethylamino-thiophen-2-yl-methyl)-cyclohexyl]-3,4,5-trimethoxy-benzamide]", "values": [{"measurement": "inhibition at 1 µM", "value": 91, "unit": "%"}, {"measurement": "pKi", "value": 7.72}]}
{"smiles": "CCSc1ncccc1C(=O)NC1CCC(C(c2cccs2)N(C)C)CC1", "note": "(stereo not drawn) [compound 213, N-[4-(dimethylamino-thiophen-2-yl-methyl)-cyclohexyl]-2-ethylsulfanyl-nicotinamide]", "values": [{"measurement": "inhibition at 1 µM", "value": 91, "unit": "%"}, {"measurement": "pKi", "value": 7.02}]}
{"smiles": "Cc1oc(-c2ccccc2)cc1C(=O)NC1CCC(C(c2ccccc2)N(C)C)CC1", "note": "(stereo not drawn) [compound 214, 2-methyl-5-phenyl-furan-3-carboxylic acid [4-(dimethylamino-phenyl-methyl)-cyclohexyl]-amide]", "values": [{"measurement": "inhibition at 1 µM", "value": 91, "unit": "%"}, {"measurement": "pKi", "value": 7.55}]}
{"smiles": "COc1ccc(C(=O)NC2CCC(C(c3ccccc3)N(C)C)CC2)c(OC)c1", "note": "(stereo not drawn) [compound 216, N-[4-(dimethylamino-phenyl-methyl)-cyclohexyl]-2,4-dimethoxy-benzamide]", "values": [{"measurement": "inhibition at 1 µM", "value": 90, "unit": "%"}, {"measurement": "pKi", "value": 7.25}]}
{"smiles": "CN(C)C(c1ccccc1)C1CCC(NC(=O)c2ccc(C(C)(C)C)cc2)CC1", "note": "(stereo not drawn) [compound 217, 4-tert-butyl-N-[4-(dimethylamino-phenyl-methyl)-cyclohexyl]-benzamide]", "values": [{"measurement": "inhibition at 1 µM", "value": 90, "unit": "%"}, {"measurement": "pKi", "value": 7.21}]}
{"smiles": "CN(C)C(c1cccs1)C1CCC(NC(=O)c2cccnc2Sc2ccc(Cl)cc2)CC1", "note": "(stereo not drawn) [compound 218, 2-(4-chloro-phenylsulfanyl)-N-[4-(dimethylamino-thiophen-2-yl-methyl)-cyclohexyl]-nicotinamide]", "values": [{"measurement": "inhibition at 1 µM", "value": 89, "unit": "%"}]}
{"smiles": "CN(C)C(c1cccs1)C1CCC(NC(=O)Cc2ccc(Cl)cc2)CC1", "note": "(stereo not drawn) [compound 219, 2-(4-chloro-phenyl)-N-[4-(dimethylamino-thiophen-2-yl-methyl)-cyclohexyl]-acetamide]", "values": [{"measurement": "inhibition at 1 µM", "value": 89, "unit": "%"}, {"measurement": "pKi", "value": 7.25}]}
{"smiles": "Cc1ccc(Oc2ncccc2C(=O)NC2CCC(C(c3cccs3)N(C)C)CC2)cc1", "note": "(stereo not drawn) [compound 220, N-[4-(dimethylamino-thiophen-2-yl-methyl)-cyclohexyl]-2-p-tolyloxy-nicotinamide]", "values": [{"measurement": "inhibition at 1 µM", "value": 88, "unit": "%"}, {"measurement": "pKi", "value": 6.82}]}
{"smiles": "CC(C)S(=O)(=O)c1csc(C(=O)NC2CCC(C(c3cccs3)N(C)C)CC2)c1Cl", "note": "(stereo not drawn) [compound 221, 3-chloro-4-(propan-2-sulfonyl)-thiophene-2-carboxylic acid [4-(dimethylamino-thiophen-2-yl-methyl)-cyclohexyl]-amide]", "values": [{"measurement": "inhibition at 1 µM", "value": 88, "unit": "%"}, {"measurement": "pKi", "value": 7.54}]}
{"smiles": "Cc1cc(C(=O)NC2CCC(C(c3ccccc3)N(C)C)CC2)n(C(C)(C)C)n1", "note": "(stereo not drawn) [compound 223, 2-tert-butyl-5-methyl-2H-pyrazole-3-carboxylic acid [4-(dimethylamino-phenyl-methyl)-cyclohexyl]-amide]", "values": [{"measurement": "inhibition at 1 µM", "value": 88, "unit": "%"}, {"measurement": "pKi", "value": 7.70}]}
{"smiles": "Cc1cc(C(=O)NC2CCC(C(c3cccs3)N(C)C)CC2)no1", "note": "(stereo not drawn) [compound 224, 5-Methyl-isoxazole-3-carboxylic acid [4-(dimethylamino-thiophen-2-yl-methyl)-cyclohexyl]-amide]", "values": [{"measurement": "inhibition at 1 µM", "value": 87, "unit": "%"}]}
{"smiles": "CN(C)C(c1cccs1)C1CCC(NC(=O)c2cncc(Br)c2)CC1", "note": "(stereo not drawn) [compound 225, 5-bromo-N-[4-(dimethylamino-thiophen-2-yl-methyl)-cyclohexyl]-nicotinamide]", "values": [{"measurement": "inhibition at 1 µM", "value": 87, "unit": "%"}, {"measurement": "pKi", "value": 7.70}]}
{"smiles": "CN(C)C(c1ccccc1)C1CCC(NC(=O)c2cccc3ccccc23)CC1", "note": "(stereo not drawn) [compound 226, naphthyl-1-carboxylic acid [4-(dimethylamino-phenyl-methyl)-cyclohexyl]-amide]", "values": [{"measurement": "μ-Opioid receptor, % inhibition [1 μM]", "value": 87, "unit": "%"}, {"measurement": "pKi", "value": 7.24}]}
{"smiles": "Cc1oc(-c2ccc(Cl)cc2)cc1C(=O)NC1CCC(C(c2cccs2)N(C)C)CC1", "note": "(stereo not drawn) [compound 229, 5-(4-chloro-phenyl)-2-methyl-furan-3-carboxylic acid [4-(dimethylamino-thiophen-2-yl-methyl)-cyclohexyl]-amide]", "values": [{"measurement": "inhibition at 1 µM", "value": 86, "unit": "%"}, {"measurement": "pKi", "value": 7.41}]}
{"smiles": "CC(Oc1ccccc1)C(=O)NC1CCC(C(c2ccccc2)N(C)C)CC1", "note": "(stereo not drawn) [compound 230, N-[4-(dimethylamino-phenyl-methyl)-cyclohexyl]-2-phenoxy-propionamide]", "values": [{"measurement": "inhibition at 1 µM", "value": 86, "unit": "%"}, {"measurement": "pKi", "value": 7.68}]}
{"smiles": "CN(C)C(c1cccc(F)c1)C1CCC(NC(=O)c2cc3ccccc3s2)CC1", "note": "(stereo not drawn) [compound 231, benzo[b]thiophene-2-carboxylic acid {4-[dimethylamino-(3-fluoro-phenyl)-methyl]-cyclohexyl}-amide]", "values": [{"measurement": "inhibition at 1 µM", "value": 86, "unit": "%"}, {"measurement": "pKi", "value": 7.35}]}
{"smiles": "Cc1oc(-c2ccc(Cl)cc2)cc1C(=O)NC1CCC(C(c2ccccc2)N(C)C)CC1", "note": "(stereo not drawn) [compound 232, 5-(4-chloro-phenyl)-2-methyl-furan-3-carboxylic acid [4-(dimethylamino-phenyl-methyl)-cyclohexyl]-amide]", "values": [{"measurement": "inhibition at 1 µM", "value": 84, "unit": "%"}, {"measurement": "pKi", "value": 7.13}]}
{"smiles": "Cc1c(S(=O)(=O)c2ccc(Cl)cc2)csc1C(=O)NC1CCC(C(c2ccccc2)N(C)C)CC1", "note": "(stereo not drawn) [compound 233, 4-(4-chloro-benzenesulfonyl)-3-methyl-thiophene-2-carboxylic acid [4-(dimethylamino-phenyl-methyl)-cyclohexyl]-amide]", "values": [{"measurement": "inhibition at 1 µM", "value": 84, "unit": "%"}, {"measurement": "pKi", "value": 7.15}]}
{"smiles": "CN(C)C(c1ccccc1)C1CCC(NC(=O)c2cncc(Br)c2)CC1", "note": "(stereo not drawn) [compound 235, 5-bromo-N-[4-(dimethylamino-phenyl-methyl)-cyclohexyl]-nicotinamide]", "values": [{"measurement": "inhibition at 1 µM", "value": 84, "unit": "%"}, {"measurement": "pKi", "value": 7.21}]}
{"smiles": "CN(C)C(c1ccccc1)C1CCC(NC(=O)C23CC4CC(CC(C4)C2)C3)CC1", "note": "(stereo not drawn) [compound 236, adamantane-1-carboxylic acid [4-(dimethylamino-phenyl-methyl)-cyclohexyl]-amide]", "values": [{"measurement": "inhibition at 1 µM", "value": 83, "unit": "%"}, {"measurement": "pKi", "value": 7.20}]}
{"smiles": "CN(C)C(c1ccccc1)C1CCC(NC(=O)c2csc(-c3ccccc3)n2)CC1", "note": "(stereo not drawn) [compound 237, 2-phenyl-thiazole-4-carboxylic acid [4-(dimethylamino-phenyl-methyl)-cyclohexyl]-amide]", "values": [{"measurement": "inhibition at 1 µM", "value": 83, "unit": "%"}, {"measurement": "pKi", "value": 7.32}]}
{"smiles": "Cc1nc(-c2ccccc2)sc1C(=O)NC1CCC(C(c2ccccc2)N(C)C)CC1", "note": "(stereo not drawn) [compound 238, 4-methyl-2-phenyl-thiazole-5-carboxylic acid [4-(dimethylamino-phenyl-methyl)-cyclohexyl]-amide]", "values": [{"measurement": "inhibition at 1 µM", "value": 83, "unit": "%"}, {"measurement": "pKi", "value": 7.42}]}
{"smiles": "CN(C)C(c1cccs1)C1CCC(NC(=O)c2csc(-c3ccc4c(c3)CCO4)n2)CC1", "note": "(stereo not drawn) [compound 239, 2-(2,3-dihydro-benzofuran-5-yl)-thiazole-4-carboxylic acid [4-(dimethylamino-thiophen-2-yl-methyl)-cyclohexyl]-amide]", "values": [{"measurement": "inhibition at 1 µM", "value": 82, "unit": "%"}, {"measurement": "pKi", "value": 7.10}]}
{"smiles": "CN(C)C(c1cccc(F)c1)C1CCC(NC(=O)Cc2ccccc2)CC1", "note": "(stereo not drawn) [compound 240, N-{4-[dimethylamino-(3-fluoro-phenyl)-methyl]-cyclohexyl}-2-phenyl-acetamide]", "values": [{"measurement": "inhibition at 1 µM", "value": 82, "unit": "%"}, {"measurement": "pKi", "value": 7.29}]}
{"smiles": "CN(C)C(CCc1ccccc1)C1CCC(NC(=O)c2cccc(Cl)c2)CC1", "note": "(stereo not drawn) [compound 241, 3-chloro-N-[4-(1-dimethylamino-3-phenyl-propyl)-cyclohexyl]-benzamide]", "values": [{"measurement": "inhibition at 1 µM", "value": 82, "unit": "%"}, {"measurement": "pKi", "value": 7.17}]}
{"smiles": "Cc1ccc(C(=O)NC2CCC(C(c3ccccc3)N(C)C)CC2)cc1", "note": "(stereo not drawn) [compound 242, N-[4-(dimethylamino-phenyl-methyl)-cyclohexyl]-4-methyl-benzamide]", "values": [{"measurement": "inhibition at 1 µM", "value": 82, "unit": "%"}, {"measurement": "pKi", "value": 7.34}]}
{"smiles": "CN(C)C(c1cccc(F)c1)C1CCC(NC(=O)c2cc(Cl)cc(Cl)c2)CC1", "note": "(stereo not drawn) [compound 243, 3,5-dichloro-N-{4-[dimethylamino-(3-fluoro-phenyl)-methyl]-cyclohexyl}-benzamide]", "values": [{"measurement": "inhibition at 1 µM", "value": 82, "unit": "%"}, {"measurement": "pKi", "value": 7.60}]}
{"smiles": "CN(C)C(c1ccccc1)C1CCC(NC(=O)c2c(F)ccc(F)c2F)CC1", "note": "(stereo not drawn) [compound 244, N-[4-(dimethylamino-phenyl-methyl)-cyclohexyl]-2,3,6-trifluoro-benzamide]", "values": [{"measurement": "inhibition at 1 µM", "value": 82, "unit": "%"}, {"measurement": "pKi", "value": 7.52}]}
{"smiles": "Cc1cc(C(=O)NC2CCC(C(c3ccccc3)N(C)C)CC2)n(C(C)(C)C)n1", "note": "(stereo not drawn) [compound 247, 2-tert-butyl-5-methyl-2H-pyrazole-3-carboxylic acid [4-(dimethylamino-phenyl-methyl)-cyclohexyl]-amide]", "values": [{"measurement": "μ-Opioid receptor, % inhibition [1 μM]", "setting": "1 µM", "value": 82, "unit": "%"}, {"measurement": "pKi", "value": 7.44}]}
{"smiles": "Cc1cccc(C(=O)NC2CCC(C(CCc3ccccc3)N(C)C)CC2)c1", "note": "(stereo not drawn) [compound 248, N-[4-(1-dimethylamino-3-phenyl-propyl)-cyclohexyl]-3-methyl-benzamide]", "values": [{"measurement": "inhibition at 1 µM", "value": 81, "unit": "%"}, {"measurement": "pKi", "value": 7.06}]}
